This is an account of results in patent publication US20100120858A1, “Piperidine Derivatives” (Pfizer Inc., priority 2006, published 2010).

Assay [1] has as its target human norepinephrine transporter (Homo sapiens, UniProt P23975). Briefly: Human norepinephrine (hNET) receptor binding, [125I]-RTI-55. To be noted: membranes of HEK-293 cells transfected with human norepinephrine transporter cDNA; 50 pM [125I]-RTI-55; IC50 converted by Cheng-Prusoff. The method, then: Cell pastes of human embryonic kidney 293 (HEK-293) cells transfected with a human norepinephrine transporter cDNA were prepared. The cell pastes were resuspended in 400 to 700 mL of Krebs-N-2-hydroxyethylpiperazine-N′-2-ethanesulfonic acid (HEPES) assay buffer (25 mM HEPES, 122 mM NaCl, 3 mM KCl, 1.2 mM MgSO4, 1.3 mM CaCl2, and 11 mM glucose, pH 7.4) with a Polytron homogenizer at setting 7 for 30 seconds. Aliquots of membranes (5 mg/mL protein) were stored in liquid nitrogen until used.
The binding assay was set up in Beckman deep-well polypropylene plates with a total volume of 250 μL containing: test compound (concentration of 10^−5M to 10^−12M), cell membranes, and 50 pM [^125I]-RTI-55 ([^125I]-3 beta-(4-iodophenyl)tropan-2 beta-carboxylic acid methyl ester) (Perkin Elmer, NEX-272; specific activity 2200 Ci/mmol). The reaction was incubated by gentle agitation for 90 minutes at room temperature and was terminated by filtration through Whatman GF/C filter plates using a Brandel 96-well plate harvester. Scintillation fluid (100 μL) was added to each well, and bound [^125I]-RTI-55 was determined using a Wallac Trilux Beta Plate Counter. Test compounds were run in duplicate, and specific binding was defined as the difference between binding in the presence and absence of 10 μM desipramine.
Excel and GraphPad Prism software were used for data calculation and analysis. IC50 values were converted to Ki values using the Cheng-Prusoff equation. The Ki values (nM) for the hNET are reported below in Table 13.

In assay [2] the target is human serotonin transporter (Homo sapiens, UniProt P31645). Briefly: Human serotonin (hSERT) receptor binding, [125I]-RTI-55. The note with it: membranes of HEK-293 cells transfected with human serotonin transporter cDNA, IC50 converted by Cheng-Prusoff. As for the experimental part: Cell pastes of HEK-293 cells transfected with a human serotonin transporter cDNA were prepared. The cell pastes were resuspended in 400 to 700 ml of Krebs-HEPES assay buffer (25 mM HEPES, 122 mM NaCl, 3 mM KCl, 1.2 mM MgSO4, 1.3 mM CaCl2, and 11 mM glucose, pH 7.4) with a Polytron homogenizer at Setting 7 for 30 seconds. Aliquots of membranes (˜2.5 mg/mL protein) were stored in liquid nitrogen until used.
Sequence of human serotonin transporter (P31645 whole entry): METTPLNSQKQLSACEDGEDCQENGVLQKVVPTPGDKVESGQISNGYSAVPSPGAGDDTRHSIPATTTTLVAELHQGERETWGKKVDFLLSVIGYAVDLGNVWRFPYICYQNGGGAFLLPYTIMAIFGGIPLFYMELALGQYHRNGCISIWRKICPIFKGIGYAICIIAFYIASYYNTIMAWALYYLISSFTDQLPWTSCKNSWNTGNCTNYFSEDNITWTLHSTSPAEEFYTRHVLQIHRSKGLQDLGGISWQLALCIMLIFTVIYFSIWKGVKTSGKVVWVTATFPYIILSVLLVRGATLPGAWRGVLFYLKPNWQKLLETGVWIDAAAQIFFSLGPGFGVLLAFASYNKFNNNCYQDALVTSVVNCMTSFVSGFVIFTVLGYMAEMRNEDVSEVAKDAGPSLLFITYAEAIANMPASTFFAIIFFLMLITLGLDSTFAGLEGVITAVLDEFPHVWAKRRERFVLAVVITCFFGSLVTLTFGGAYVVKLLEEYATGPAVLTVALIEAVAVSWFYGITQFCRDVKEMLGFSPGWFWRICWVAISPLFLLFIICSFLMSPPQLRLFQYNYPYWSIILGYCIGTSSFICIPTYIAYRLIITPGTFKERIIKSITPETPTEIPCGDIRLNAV
Assays were set up in FlashPlates pre-coated with 0.1% polyethyleneimine (PEI) in a total volume of 250 μL containing: test compound (concentration 10^−5M to 10^−12M), cell membranes, and […] [^125I]-RTI-55 (Perkin Elmer, NEX-272; specific activity 2200 Ci/mmol). The reaction was incubated and gently agitated for 90 minutes at room temperature, and terminated by removal of assay volume. Plates were covered, and bound [^125I]-RTI-55 was determined using a Wallac Trilux Beta Plate Counter. Test compounds were run in duplicate, and specific binding was defined as the difference between binding in the presence and absence of 10 μM citalopram.
Excel and GraphPad Prism software were used for data calculation and analysis. IC50 values were converted to Ki values using the Cheng-Prusoff equation.

SMILES strings stand for the structures. Structures can show the parent of a compound that is named as a salt. A value given as a limit tells only on which side of the number the result lay.

Sequence of human norepinephrine transporter (P23975 whole entry): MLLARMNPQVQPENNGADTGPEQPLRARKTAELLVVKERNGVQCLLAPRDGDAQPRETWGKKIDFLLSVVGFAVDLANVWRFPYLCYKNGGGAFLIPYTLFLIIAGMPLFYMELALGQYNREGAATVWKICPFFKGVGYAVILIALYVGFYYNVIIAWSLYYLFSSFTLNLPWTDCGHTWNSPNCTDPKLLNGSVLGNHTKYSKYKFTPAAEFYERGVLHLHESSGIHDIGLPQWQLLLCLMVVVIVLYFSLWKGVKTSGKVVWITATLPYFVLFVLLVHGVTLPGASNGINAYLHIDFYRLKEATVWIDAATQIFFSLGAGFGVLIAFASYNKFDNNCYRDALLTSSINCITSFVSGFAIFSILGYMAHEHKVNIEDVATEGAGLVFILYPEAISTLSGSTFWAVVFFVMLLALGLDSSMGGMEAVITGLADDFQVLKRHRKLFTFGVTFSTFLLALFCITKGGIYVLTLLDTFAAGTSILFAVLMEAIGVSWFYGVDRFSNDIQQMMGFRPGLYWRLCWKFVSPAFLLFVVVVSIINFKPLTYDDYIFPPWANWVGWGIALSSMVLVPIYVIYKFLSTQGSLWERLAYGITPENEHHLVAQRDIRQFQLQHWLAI

For orientation: Ki means a dissociation constant, usually derived from enzyme kinetics or from competition with a known ligand. The low end stands for higher affinity, the high end for lower affinity. On to `COc1cc(Cl)ccc1Oc1cc(C(F)(F)F)ccc1OC[C@H]1CCCNC1` [Example 35, (S)-3-[2-(4-chloro-2-methoxy-phenoxy)-4-trifluoromethyl-phenoxymethyl]-piperidine fumaric acid], for which the inhibition constant Ki in assay [1] was 250 nM; in assay [2], 35 nM.
`Cc1ccc(OC[C@H]2CCCNC2)c(Oc2c(F)cccc2F)n1` [Example 42, (S)-2-(2,6-difluoro-phenoxy)-6-methyl-3-(piperidin-3-ylmethoxy)-pyridine hydrochloride]: the inhibition constant (Ki) came out at 3.6 nM in assay [1] and 110 nM in assay [2].
For `Fc1ccc(Oc2ncccc2OC(c2ccccc2)C2CCCNC2)cc1` (single isomer, unassigned; stereoisomer b) [Example 89, 2-(4-fluoro-phenoxy)-3-[((R or S)-phenyl)-((S)-piperidin-3-yl)-methoxy]-pyridine fumaric acid, stereoisomer B], the Ki in assay [1] was found to be 43 nM; in assay [2], 590 nM.
For `Cc1ccc(OC[C@H]2CCCNC2)c(Oc2c(F)ccc(F)c2F)n1` [Example 49, (S)-6-methyl-3-(piperidin-3-ylmethoxy)-2-(2,3,6-trifluoro-phenoxy)-pyridine hydrochloride], the results for the Ki in assay [1] and in assay [2] were 6.1 nM and 25 nM, respectively.
For `Cc1ccc(OC[C@H]2CCCNC2)c(Oc2ccccc2Cl)n1` [Example 7, (S)-2-(2-chloro-phenoxy)-6-methyl-3-(piperidin-3-ylmethoxy)-pyridine fumaric acid], in that order: 2.7 nM and 350 nM.
`Fc1ccc(Oc2cccc(F)c2OC[C@H]2CCCNC2)cc1F` [Example 97, (S)-3-[2-(3,4-difluoro-phenoxy)-6-fluoro-phenoxymethyl]-piperidine fumaric acid]: the Ki is 1 nM in assay [1] and 690 nM in assay [2].
The like results for `Clc1ccc(Oc2ncccc2OC[C@H]2CCCNC2)cc1Cl` [Example 64, (S)-2-(3,4-dichloro-phenoxy)-3-(piperidin-3-ylmethoxy)-pyridine fumaric acid] were, in that order, 17 nM and 860 nM.
The like results for `COc1cc(F)ccc1Oc1nc(C)ccc1OC[C@H]1CCCNC1` [Example 28, (S)-2-(4-fluoro-2-methoxy-phenoxy)-6-methyl-3-(piperidin-3-ylmethoxy)-pyridine fumaric acid] were, in that order, 6.1 nM and 300 nM.
The like results for `CC(C)COc1ncccc1OC(c1ccccc1)[C@H]1CCCNC1` (single isomer, unassigned; stereoisomer a) [Example 92, 2-isobutoxy-3-[((R or S)-phenyl)-((S)-piperidin-3-yl)-methoxy]-pyridine fumaric acid, stereoisomer A] were, in that order, 29 nM and 140 nM.
Consider `CC[C@H](Oc1cccnc1Oc1ccc(F)cc1)[C@H]1CCCNC1` [Example 85, (S,S)-2-(4-fluoro-phenoxy)-3-(1-piperidin-3-yl-propoxy)-pyridine fumaric acid], for which the inhibition constant (Ki) in assay [1] was determined as 5 nM; in assay [2], 2030 nM.
For `CC(C)COc1ccccc1O[C@@H](C)[C@H]1CCCNC1` [Example 109, (S)-3-[(S)-1-(2-isobutoxy-phenoxy)-ethyl]-piperidine], in that order: 3 nM and 1200 nM.
In the case of `Cc1ccc(OC[C@H]2CCCNC2)c(Oc2ccccc2)n1` [Example 95, (S)-6-methyl-2-phenoxy-3-(piperidin-3-ylmethoxy)-pyridine fumaric acid], the Ki in assay [1] came to 4 nM; in assay [2], 530 nM.
Turning to `Cc1ccc(OC[C@H]2CCCNC2)c(Oc2ccc(Cl)c(F)c2)n1` [Example 31, (S)-2-(4-chloro-3-fluoro-phenoxy)-6-methyl-3-(piperidin-3-ylmethoxy)-pyridine fumaric acid], the Ki in assay [1] was 8.4 nM; in assay [2] it was 101 nM.
Turning to `COc1cccc(F)c1OC[C@H]1CCCNC1` [Example 103, (S)-3-(2-fluoro-6-methoxy-phenoxymethyl)-piperidine fumaric acid], the Ki came to 45 nM in assay [1] and 1200 nM in assay [2].
On to `C[C@H](Oc1ccccc1OC1CCCCC1)[C@H]1CCCNC1` [Example 111, (S)-3-[(S)-1-(2-cyclohexyloxy-phenoxy)-ethyl]-piperidine oxalic acid], for which the figures for the inhibitory constant (Ki) in assay [1] and in assay [2] were 5 nM and 1800 nM, respectively.
As to `COc1cc(F)ccc1Oc1cc(C(F)(F)F)ccc1OC[C@H]1CCCNC1` [Example 37, (S)-3-[2-(4-fluoro-2-methoxy-phenoxy)-4-trifluoromethyl-phenoxymethyl]-piperidine fumaric acid], the Ki was determined as 77 nM in assay [1] and 22 nM in assay [2].
`N#Cc1ccc(Oc2ncccc2OC[C@H]2CCCNC2)cc1` [Example 57, (S)-4-[3-(piperidin-3-ylmethoxy)-pyridin-2-yloxy]-benzonitrile fumaric acid]: the inhibitory constant (Ki) in assay [1] was 58 nM; in assay [2] it was greater than 10000 nM.
Take `COc1cccc(F)c1Oc1cc(Cl)ccc1OC[C@H]1CCCNC1` [Example 40, (S)-3-[4-chloro-2-(2-fluoro-6-methoxy-phenoxy)-phenoxymethyl]-piperidine fumaric acid]: the Ki in assay [1] turned out to be 7.5 nM; in assay [2], 14 nM.
As to `Cc1ccc(OC[C@H]2CCCNC2)c(Oc2ccc(C(C)C)cc2)n1` [Example 20, (S)-2-[4-(1-methyl-ethyl)-phenoxy]-6-methyl-3-(piperidin-3-ylmethoxy)-pyridine fumaric acid], the Ki is 4800 nM in assay [1] and 2400 nM in assay [2].
Consider `COc1cc(C#N)ccc1Oc1ncccc1OC[C@H]1CCCNC1` [Example 62, (S)-3-methoxy-4-[3-(piperidin-3-ylmethoxy)-pyridin-2-yloxy]-benzonitrile fumaric acid], for which the Ki in assay [1] is 68 nM; in assay [2] it was greater than 10000 nM.
For `CCOc1ccccc1OC[C@H]1CCCNC1` [Example 100, (S)-3-(2-ethoxy-phenoxymethyl)-piperidine fumaric acid], in that order: 33 nM and 2600 nM.
The like results for `COCCOc1ccccc1O[C@@H](C)[C@H]1CCCNC1` [Example 113, (S)-3-{(S)-1-[2-(2-methoxy-ethoxy)-phenoxy]-ethyl}-piperidine hydrochloride] were, in that order, 17 nM and 3600 nM.
Turning to `COc1cc(Cl)ccc1Oc1cc(F)ccc1OC[C@H]1CCCNC1` [Example 36, (S)-3-[2-(4-chloro-2-methoxy-phenoxy)-4-fluoro-phenoxymethyl]-piperidine fumaric acid], the Ki in assay [1] was 830 nM; in assay [2], 110 nM.
For `Cc1ccc(OC[C@H]2CCCNC2)c(Oc2c(C)cccc2C)n1` [Example 2, (S)-2-(2,6-dimethyl-phenoxy)-6-methyl-3-(piperidin-3-ylmethoxy)-pyridine fumaric acid], in that order: 17 nM and no less than 10000 nM.
Consider `CCOc1ccccc1OC(c1ccccc1)[C@H]1CCCNC1` (mixture of isomers) [Example 106, (S)-3-[(2-ethoxy-phenoxy)-(R,S)-phenyl-methyl]-piperidine fumaric acid], for which the Ki amounted to 7 nM in assay [1] and 430 nM in assay [2].
Consider `Cc1ccc(OC[C@H]2CCCNC2)c(Oc2ccc(F)cc2)n1` [Example 41, (S)-2-(4-fluoro-phenoxy)-6-methyl-3-(piperidin-3-ylmethoxy)-pyridine fumaric acid], for which the inhibitory constant (Ki) was 3.8 nM in assay [1] and 210 nM in assay [2].
